The results in this text go back to US8440180B2, “Anti-cancer composition comprising aquatic microbial extract” (Ajou University Industry-Academic Cooperation Foundation, priority 2007, dated 2013).

Assay type in all cases: cell-based, human
For one data set, the system named is MMP-2. Put plainly: Expression level test of MMP using RT-PCR. To be noted: for expression level of the MMP-2: 24 and 48 hours. As to the method: 1 ml of a cancer cell line was homogenated in a TRIzol (GIBCOBRL, Grand Island, N.Y., USA) reagent, and the total RNA was extracted from the cancer cell line. 2 μg of the total RNA extracted from the hypopharyngeal cancer cell line was put into reaction mixtures of an Omniscript Reverse Transcriptase kit (20511, Qiagen Germany) (including 2.0 μl of 10× Buffer RT, 2.0 μl of dNTP Mix (5 mM each dNTP), 2.0 μl of Oligo-dT primer (10 μM), 1.0 μl of a RNase inhibitor (10 units/μl), 2 units of Omniscript Reverse Transcriptase and 20 μl of RNase-free water), and reverse transcribed at 37° C. for 60 minutes and at 94° C. for 5 minutes to synthesize cDNA. PCR was carried out using Minicycler™ (MJ research, USA), and the synthesized cDNA was added together with 1 unit of Taq DNA polymerase (Roche Diagnostics Co, Indianapolis, USA) and each primer, and then amplified.
DNA sequences of MMP-2 primer and MMP-9 primer used in this experiment were listed as follows.
A PCR procedure was carried out in one initial denaturation cycle at 96° C. for 3 minutes, 30 amplification cycles at 96° C. for 30 seconds, at 55° C. for 30 seconds and at 72° C. for 30 seconds, and one extension cycle at 72° C. for 5 minutes.

A further data set deals with MMP-9. The data set is described as follows: MMP activity test using zymogram. To be noted: 10 ng HGF-treated group compared to the control. Here is the method: Proteins were quantitified from each of the supernatants, 30 μg of each supernatant was taken, and 15 μl APMA was added to each of the supernatants and activated at 37° C. for 1 hour. The activated test samples were added, and treated with MightySlim™ SX 250 (Hoefer, Calif., USA) for 2 4 hours and 48 hours. Then, the resulting test samples were ground to obtain cytoplasm samples. 10 μl of the cytoplasm samples were taken from these cytoplasm samples and added to sample buffers, respectively, and kept for 10 minutes. Then, the cytoplasm samples were added to previously-prepared gels, and then reacted at 4° C. and 125V for 120 minutes using Novex XCell II. The resulting cytoplasm samples were kept in a renaturing buffer at a room temperature for 60 minutes, and, after a developing buffer was replaced by 100 ml of fresh developing buffer, the cytoplasm samples were kept in the fresh developing buffer for 18 hours at 37° C. while stirring. Then, the cytoplasm samples were stained with Coomassie blue for 3 hours, washed with water, and observed at intervals of 10 minutes. In this case, a the gels were destained with a destaining solution (Methanol 400 ml, Acetic acid 100 ml, Distilled water 500 ml), and photographs of the gels were then taken using an image analyzer.

The subject of another data set is FaDu cells. Put plainly: Proliferative assay of tumor cell. To be noted: fifth day after the treatment, compared to the DMSO control. Here is the method: In order to evaluate effects of selected aquatic microbial extracts having an anti-cancer effect, FaDu cells (1×10^5/well) treated with 0, 10 and 30 ng/ml of HGF were treated with an aquatic Bacillus sp. strain extract (concentration: 1, 10 and 100 μM), and then incubated for 5 days. Then, 1, 3 and 5-day growth of the FaDu cells were determined by measuring the cell number of the FaDu cells using a haemocytometer. In this case, a medium was replaced by fresh medium. This experiment was repeated five times to statistically analyze the cell number difference according to the amounts of HGF and the extract.

On to “HGF: hepatocyte growth factor used to stimulate cancer cells”, for which the “expression level of the MMP-2” value is “not significantly different” in the data set on MMP-2 (10 ng/ml HGF, vs control) and “increased” in the data set on MMP-2 (30 ng/ml HGF). For the same substance, the “expression level between the control and the HGF-treated groups when MMP-2 was treated with the HGF” value with MMP-2 (second statement, printed MMP-2) is recorded as “no distinct difference”. Also, the “expression of the MMP-9 (MMP activity evaluation)” value in the data set on MMP-9 is “slightly increased”. Further, the “cell proliferation on stimulation with hepatocyte growth factor” value with FaDu cells is “statistically significant cell proliferation”.
